Results from ChEMBL document CHEMBL3585308, “Discovery and Modification of in Vivo Active Nrf2 Activators with 1,2,4-Oxadiazole Core: Hits Identification and Structure-Activity Relationship Study” (J Med Chem, 2015).
≈ marks a conversion by molar mass, not a printed value. Values belong to the compound of their own block, whether it stands above or below them. Calls of active or inactive are those of the source. The calls are words filed in the database; no cut-off is given here.

How the values were obtained:
Mus musculus [1] = test: In vivo activation of Nrf2 in LPS-stimulated C57BL/6 mouse lung at 10 to 80 mg/kg/day, ip pretreated for 48 hrs followed by LPS challenge measured after 5 hrs by DAPI staining-based laser scanning confocal microscopic analysis; assay type: functional, organism-based
Mus musculus [2] = test: In vivo activation of Nrf2 in LPS-stimulated ip dosed C57BL/6 mouse lung pretreated for 48 hrs followed by LPS challenge measured after 5 hrs by Western blot analysis; assay type: functional, organism-based
[3] = biological target: T1, Nuclear factor erythroid 2-related factor 2 (Homo sapiens) (UniProt Q16236); test: Activation of Nrf2 in human HCT116 cells measured at 4 hrs by qRT-PCR analysis; assay type: cell-based; conditions: HCT-116
T1 sequence (whole entry): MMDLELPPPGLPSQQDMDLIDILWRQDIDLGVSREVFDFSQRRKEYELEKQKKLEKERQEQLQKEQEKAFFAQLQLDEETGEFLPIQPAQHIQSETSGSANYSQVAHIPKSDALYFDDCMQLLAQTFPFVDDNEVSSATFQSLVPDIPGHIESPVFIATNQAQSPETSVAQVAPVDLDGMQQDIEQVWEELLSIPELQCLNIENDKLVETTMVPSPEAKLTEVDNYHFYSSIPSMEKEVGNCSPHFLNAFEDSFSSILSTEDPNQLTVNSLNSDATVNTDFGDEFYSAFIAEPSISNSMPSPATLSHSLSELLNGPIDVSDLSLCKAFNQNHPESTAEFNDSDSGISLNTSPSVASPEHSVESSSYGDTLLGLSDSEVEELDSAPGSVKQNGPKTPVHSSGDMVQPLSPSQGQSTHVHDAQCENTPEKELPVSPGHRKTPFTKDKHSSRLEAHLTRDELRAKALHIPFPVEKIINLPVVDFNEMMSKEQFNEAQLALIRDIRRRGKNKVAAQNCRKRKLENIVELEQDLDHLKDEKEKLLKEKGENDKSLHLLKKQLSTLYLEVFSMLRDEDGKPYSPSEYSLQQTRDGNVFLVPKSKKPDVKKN

[4] = biological target: T1, Nuclear factor erythroid 2-related factor 2 (Homo sapiens); test: Activation of Nrf2 in human HCT116 cells assessed as upregulation of GCLM gene expression measured at 4 hrs by qRT-PCR analysis; assay type: cell-based; conditions: HCT-116
[5] = biological target: T1, Nuclear factor erythroid 2-related factor 2 (Homo sapiens); test: Activation of Nrf2 in human HCT116 cells assessed as upregulation of HO-1 gene expression measured at 4 hrs by qRT-PCR analysis; assay type: cell-based; conditions: HCT-116
HCT-116 = test: Cytotoxicity against human HCT116 cells assessed as reduction of cell proliferation at 80 uM after 24 hrs by MTT assay; assay type: cell-based; conditions: hct-116, 24 h
[6] = biological target: T1, Nuclear factor erythroid 2-related factor 2 (Homo sapiens); test: Activation of Nrf2 in human HepG2-ARE-C8 cells assessed as upregulation of ARE level after 12 hrs by luciferase reporter gene assay; assay type: cell-based
[7] = Dissociation constant, pKa of the compound by potentiometric titration method; assay type: physicochemical
[8] = Lipophilicity, log D of the compound at pH 7.4 by potentiometric titration method; assay type: physicochemical; conditions: buffer
[9] = Intrinsic aqueous solubility of the compound by potentiometric titration method; assay type: physicochemical; conditions: read-out: Intrinsic_solubility
[10] = Permeability of the compound at pH 7.4 by PAMPA; assay type: physicochemical; conditions: read-out: permeability
[11] = biological target: T1, Nuclear factor erythroid 2-related factor 2 (Homo sapiens); test: Induction of Nrf2 phosphorylation at S40 in cytoplasm of human HCT116 cells at 20 uM after 4 hrs by Western blot analysis; assay type: cell-based; conditions: HCT-116
[12] = biological target: T1, Nuclear factor erythroid 2-related factor 2 (Homo sapiens); test: Induction of Nrf2 translocation from cytoplasm to nucleus in human HCT116 cells at 20 uM after 4 hrs by Western blot analysis; assay type: cell-based; conditions: HCT-116
[13] = biological target: T1, Nuclear factor erythroid 2-related factor 2 (Homo sapiens); test: Induction of phosphorylated Nrf2 at S40 translocation from cytoplasm to nucleus in human HCT116 cells at 20 uM after 4 hrs by Western blot analysis; assay type: cell-based; conditions: HCT-116
[14] = biological target: T1, Nuclear factor erythroid 2-related factor 2 (Homo sapiens); test: Induction of Nrf2 translocation from cytoplasm to nucleus in human HCT116 cells after 12 hrs by DyLight 488 and DAPI staining-based laser scanning confocal microscopic analysis; assay type: cell-based; conditions: HCT-116
[15] = biological target: T1, Nuclear factor erythroid 2-related factor 2 (Homo sapiens); test: Activation of Nrf2 in human HCT116 cells assessed as upregulation of NQO1 expression after 8 hrs by Western blot analysis; assay type: cell-based; conditions: HCT-116
[16] = biological target: T1, Nuclear factor erythroid 2-related factor 2 (Homo sapiens); test: Activation of Nrf2 in human HCT116 cells assessed as upregulation of HO-1 expression after 8 hrs by Western blot analysis; assay type: cell-based; conditions: HCT-116
[17] = biological target: T1, Nuclear factor erythroid 2-related factor 2 (Homo sapiens); test: Activation of Nrf2 in human HCT116 cells assessed as upregulation of GCS expression at 10 uM after 1 hr by Western blot analysis; assay type: cell-based; conditions: HCT-116
[18] = biological target: T1, Nuclear factor erythroid 2-related factor 2 (Homo sapiens); test: Activation of Nrf2 in human HCT116 cells assessed as upregulation of NQO1 gene expression measured at 4 hrs by qRT-PCR analysis; assay type: cell-based; conditions: HCT-116
[19] = biological target: T1, Nuclear factor erythroid 2-related factor 2 (Homo sapiens); test: Activation of Nrf2 in human HCT116 cells at 20 uM after 8 hrs by qRT-PCR analysis in presence of siRNA relative to siRNA nontreated control; assay type: cell-based; conditions: HCT-116
[20] = biological target: T1, Nuclear factor erythroid 2-related factor 2 (Homo sapiens); test: Activation of Nrf2 in human HCT116 cells assessed as upregulation of NQO1 gene expression at 20 uM after 8 hrs by qRT-PCR analysis in presence of siRNA relative to siRNA nontreated control; assay type: cell-based; conditions: HCT-116
[21] = biological target: T1, Nuclear factor erythroid 2-related factor 2 (Homo sapiens); test: Activation of Nrf2 in human HCT116 cells assessed as upregulation of GCLM gene expression at 20 uM after 8 hrs by qRT-PCR analysis in presence of siRNA relative to siRNA nontreated control; assay type: cell-based; conditions: HCT-116
[22] = biological target: T1, Nuclear factor erythroid 2-related factor 2 (Homo sapiens); test: Activation of Nrf2 in human HCT116 cells assessed as upregulation of HO-1 gene expression at 20 uM after 8 hrs by qRT-PCR analysis in presence of siRNA relative to siRNA nontreated control; assay type: cell-based; conditions: HCT-116
Mus musculus [23] = test: Toxicity in C57BL/6 mouse assessed as effect on body weight at 10 to 80 mg/kg/day, ip measured after 3 days; assay type: organism-based; conditions: in vivo, 72 h
Mus musculus [24] = test: Antiinflammatory activity in ip dosed C57BL/6 mouse assessed as reduction of LPS-induced TNF-alpha level in serum pretreated for 48 hrs followed by LPS challenge measured after 5 hrs by ELISA relative to LPS-treated control; assay type: functional, organism-based
Mus musculus [25] = test: Antiinflammatory activity in ip dosed C57BL/6 mouse assessed as reduction of LPS-induced IFN-gamma level in serum pretreated for 48 hrs followed by LPS challenge measured after 5 hrs by ELISA relative to LPS-treated control; assay type: functional, organism-based
Mus musculus [26] = test: Antiinflammatory activity in ip dosed C57BL/6 mouse assessed as reduction of LPS-induced IL-6 level in serum pretreated for 48 hrs followed by LPS challenge measured after 5 hrs by ELISA relative to LPS-treated control; assay type: functional, organism-based
Mus musculus [27] = test: Antiinflammatory activity in ip dosed C57BL/6 mouse assessed as reduction of LPS-induced IL-12 level in serum pretreated for 48 hrs followed by LPS challenge measured after 5 hrs by ELISA relative to LPS-treated control; assay type: functional, organism-based
Mus musculus [28] = test: Antiinflammatory activity in ip dosed C57BL/6 mouse assessed as reduction of LPS-induced IL-17 level in serum pretreated for 48 hrs followed by LPS challenge measured after 5 hrs by ELISA relative to LPS-treated control; assay type: functional, organism-based
Mus musculus [29] = test: Antiinflammatory activity in C57BL/6 mouse assessed as prevention of LPS-induced morphological changes in lung at 10 to 80 mg/kg/day, ip pretreated for 48 hrs followed by LPS challenge measured after 5 hrs; assay type: functional, organism-based
Mus musculus [30] = test: Antiinflammatory activity in ip dosed C57BL/6 mouse assessed as inhibition of LPS-induced IL-6 expression in lung pretreated for 48 hrs followed by LPS challenge measured after 5 hrs by immunohistochemical analysis; assay type: functional, organism-based
[31] = biological target: T1, Nuclear factor erythroid 2-related factor 2 (Homo sapiens); test: Activation of Nrf2 in human HepG2-ARE-C8 cells assessed as upregulation of ARE level at 40 uM after 12 hrs by luciferase reporter gene assay relative to control; assay type: cell-based
[32] = biological target: T1, Nuclear factor erythroid 2-related factor 2 (Homo sapiens); test: Activation of Nrf2 in human HepG2-ARE-C8 cells assessed as upregulation of ARE level at 80 uM after 12 hrs by luciferase reporter gene assay relative to control; assay type: cell-based
[33] = biological target: T1, Nuclear factor erythroid 2-related factor 2 (Homo sapiens); test: Activation of Nrf2 in human HepG2-ARE-C8 cells assessed as upregulation of ARE level at 160 uM after 12 hrs by luciferase reporter gene assay relative to control; assay type: cell-based
[34] = biological target: T1, Nuclear factor erythroid 2-related factor 2 (Homo sapiens); test: Activation of Nrf2 in human HepG2-ARE-C8 cells assessed as upregulation of ARE level at 20 uM after 12 hrs by luciferase reporter gene assay relative to control; assay type: cell-based
[35] = biological target: T1, Nuclear factor erythroid 2-related factor 2 (Homo sapiens); test: Activation of Nrf2 in human HepG2-ARE-C8 cells assessed as upregulation of ARE level at 50 uM after 12 hrs by luciferase reporter gene assay relative to control; assay type: cell-based
[36] = biological target: T1, Nuclear factor erythroid 2-related factor 2 (Homo sapiens); test: Activation of Nrf2 in human HepG2-ARE-C8 cells assessed as upregulation of ARE level at 0.2 uM after 12 hrs by luciferase reporter gene assay relative to control; assay type: cell-based
[37] = biological target: T1, Nuclear factor erythroid 2-related factor 2 (Homo sapiens); test: Activation of Nrf2 in human HepG2-ARE-C8 cells assessed as upregulation of ARE level at 0.02 uM after 12 hrs by luciferase reporter gene assay relative to control; assay type: cell-based
[38] = biological target: T1, Nuclear factor erythroid 2-related factor 2 (Homo sapiens); test: Activation of Nrf2 in human HepG2-ARE-C8 cells assessed as upregulation of ARE level at 2 uM after 12 hrs by luciferase reporter gene assay relative to control; assay type: cell-based

- Activity [3]: Dose-dependent effect
- Activity [4]: Dose-dependent effect
- Activity [5]: Dose-dependent effect
- Activity [6]: Dose-dependent effect
- pKa [7]: 3.57
- logD [8]: 3.37
- solubility [9]: 66.9 µM (≈ 18.7 µg/mL)
- Papp [10]: 19.6 ×10⁻⁶ cm/s
- Activity [11]: Active
- Activity [12]: Active
- Activity [13]: Active
- Activity [14]: Dose-dependent effect
- Activity [15]: Dose-dependent effect
- Activity [16]: Dose-dependent effect
- Activity [17]: Active
- Activity [18]: Dose-dependent effect
- Activity [19]: Active
- Activity [20]: Active
- Activity [21]: Active
- Activity [22]: Active
SMILES: Fc1ccc(-c2nc(-c3ccc4nc[nH]c4c3)no2)cc1
- Activity (Mus musculus [1]): Active
- Activity (Mus musculus [2]): Dose-dependent effect
- Activity (HCT-116): Non-toxic
- Activity (Mus musculus [23]): Non-toxic
- Activity (Mus musculus [24]): Dose-dependent effect
- Activity (Mus musculus [25]): Dose-dependent effect
- Activity (Mus musculus [26]): Dose-dependent effect
- Activity (Mus musculus [27]): Dose-dependent effect
- Activity (Mus musculus [28]): Dose-dependent effect
- Activity (Mus musculus [29]): Active
- inhibition (Mus musculus [30]): Dose-dependent effect

- fold change (FC) [31]: 4.05
- fold change (FC) [32]: 5.88
- fold change (FC) [33]: 6
- fold change (FC) [34]: 3.31
- fold change (FC) [35]: 5.47
- fold change (FC) [36]: 1.22
- fold change (FC) [37]: 1.18
- fold change (FC) [38]: 1.47
SMILES: Cc1nc2cc(-c3noc(-c4ccccc4Br)n3)ccc2o1
